# Assay results taken from patent US9328143B2, “Peptide derivatives and use thereof as carriers for molecules in the form of conjugates” (VECT-HORUS, priority 2008, dated 2016).
# Like-named read-outs stand apart in the source and are kept apart here.
# Assays:
# [1] = Pan et al., 2004; cited from earlier work
# hLDLR [2] = target: T1, hLDLR (Homo sapiens, UniProt P01130); assay: FACS: binding of bacterial viruses expressing peptides to HUVEC; set-up: endogenous in cells; host or cells: HUVEC (human umbilical vein endothelial cells), not genetically modified
# T1 sequence (P01130 22-860): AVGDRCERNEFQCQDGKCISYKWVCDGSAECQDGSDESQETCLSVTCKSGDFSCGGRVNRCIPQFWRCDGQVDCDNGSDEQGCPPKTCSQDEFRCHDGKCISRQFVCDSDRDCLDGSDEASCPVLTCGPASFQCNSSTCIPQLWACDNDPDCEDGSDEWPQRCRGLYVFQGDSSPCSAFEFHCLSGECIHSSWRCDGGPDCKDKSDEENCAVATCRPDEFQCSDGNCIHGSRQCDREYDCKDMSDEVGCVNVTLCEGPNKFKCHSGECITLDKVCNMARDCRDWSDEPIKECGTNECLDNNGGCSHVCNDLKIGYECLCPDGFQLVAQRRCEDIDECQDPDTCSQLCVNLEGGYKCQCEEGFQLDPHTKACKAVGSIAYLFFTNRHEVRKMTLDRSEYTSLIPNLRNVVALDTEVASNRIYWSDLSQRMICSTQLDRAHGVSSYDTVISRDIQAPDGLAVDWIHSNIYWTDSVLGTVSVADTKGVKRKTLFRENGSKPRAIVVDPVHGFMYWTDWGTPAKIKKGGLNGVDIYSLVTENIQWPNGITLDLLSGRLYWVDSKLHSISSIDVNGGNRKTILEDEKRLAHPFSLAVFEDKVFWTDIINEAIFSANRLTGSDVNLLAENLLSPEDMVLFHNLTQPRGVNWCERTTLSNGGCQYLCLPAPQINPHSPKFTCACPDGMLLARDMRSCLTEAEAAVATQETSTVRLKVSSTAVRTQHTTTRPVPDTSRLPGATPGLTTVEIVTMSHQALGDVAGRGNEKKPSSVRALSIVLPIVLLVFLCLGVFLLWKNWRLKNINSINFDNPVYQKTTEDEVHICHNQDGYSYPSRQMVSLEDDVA
# Procedure: Evaluation by FACS of the interaction between HUVEC and two clones of bacterial viruses expressing peptides, one cyclic (SEQ ID NO: 11), the other linear (SEQ ID NO: 21), with affinity for hLDLR, compared with control bacterial viruses not expressing peptides with affinity for this receptor.
# (§1) Qualitative immunocytochemistry was supplemented with quantitative flow cytometry (FACS) with suspended cells (GFP cell line, CHO-hLDLR-GFP cell line, human fibroblasts, HUVEC). These cells were grown in culture medium, mechanically unbound and dissociated (without trypsin), centrifuged, resuspended and incubated in the presence of various bacterial virus clones and anti-LDLR antibody, for 20 min at 4° C. in order to avoid any process of endocytosis. After washings, the bacterial viruses bound to cells were visualised with anti-viral envelope protein antibody. FACS analyses were carried out with a FACSCanto system (Becton Dickinson) using BD FACSDiva software. The number of positive cells was standardised with 5,000 events for each test. The results were expressed in arbitrary units of fluorescence.
# (§2) FIGS. 9, 10, 11 correspond to the results obtained for peptides SEQ ID NO: 11, SEQ ID NO: 12 and SEQ ID NO: 21 on cells of the CHO-hLDLR-GFP cell line (FIG. 9), human fibroblasts (FIG. 10) and HUVEC (FIG. 11).
# hLDLR [3] = target: T1, hLDLR; assay: FACS: binding of bacterial viruses expressing peptides to CHO-hLDLR-GFP cells; set-up: expressed in transfected cells; conditions: peptide expressed by bacterial virus clone, vs control bacterial viruses, 20 min at 4° C.
# Procedure: Evaluation by FACS of the interaction between CHO-hLDLR-GFP cells and a clone of bacterial viruses expressing peptide SEQ ID NO: 11 with affinity for hLDLR compared with control bacterial viruses not expressing peptides with affinity for this receptor.
# as §1, §2
# hLDLR [4] = target: T1, hLDLR; assay: FACS on HUVEC: competition between peptides expressed by bacterial viruses and natural ligand LDL; assay type: binding; set-up: endogenous in cells; host or cells: HUVEC (human umbilical vein endothelial cells), not genetically modified
# Excerpt: Evaluation by FACS on HUVEC of competition between the peptides expressed by the bacterial viruses with affinity for LDLR and its natural ligand LDL.
# I—Graph representing the percentage of shift of the fluorescence signal in zone Q2 of graphs A-H obtained by FACS. […] Adding LDL leads to an 85% loss of signal in Q2 in […], indicating competition between the bacterial virus corresponding to peptide sequence SEQ ID NO: 21 and LDL at the site where LDL binds to hLDLR. The equally strong signal in Q2 of the bacterial viruses that express peptide SEQ ID NO: 11 (shift greater than 70% compared to control bacterial viruses) is only slightly shifted (17%) by adding LDL.
# First, it is shown that the binding rate of bacterial viruses expressing peptides with affinity for hLDLR (SEQ ID NO: 21 and SEQ ID NO: 11 are used here as examples) is proportional to the level of LDLR expression by HUVEC. FACS experiments carried out in the presence of LDL made it possible to show and quantify a strong shift (85%) of LDL by linear peptides (for example SEQ ID NO: 21), but a small shift (17%) by cyclic peptides (for example SEQ ID NO: 11).
# [5] = In situ perfusion in mouse, transport across the blood-retinal barrier; assay type: in vivo; conditions: mouse, in vivo
# Excerpt: (§3) This strategy of in situ brain perfusion normally carried out in the rat was adapted for mouse (Dagenais et al., 2000, J Cereb Blood Flow Metab., 20(2), 381-6) in order to broaden its application for evaluating the parameters of transport kinetics at the BBB and the blood-retinal barrier, in transgenic and KO mutant mice for the receptors, enzymes or transporters of active substances. It involves catheterisation of a carotid artery in anaesthetised OF 1 mice and ligature of some branches of this carotid artery (external, thyroidal, occipital) in order to specifically perfuse the internal carotid and pterygopalatine arteries, which are used to evaluate the uptake in the brain of the vectors and conjugates. The catheter makes it possible to replace general circulation by infusion with a well-controlled perfusate (bicarbonate buffer, plasma or blood) by passing by the carotid. Oxygenated Krebs bicarbonate buffer is first used to evaluate the capacities of the vectors and conjugates to gain access to the brain. After catheterisation of the carotid, endogenous blood flow is stopped by sectioning the ventricles of the heart in order to avoid the mixture of buffer with blood and elevation in blood pressure. The duration of the fixed flow-rate perfusion is monitored. The buffer perfusion can be extended up to 20 min, or up to 1 h in the presence of oxygen transporters (washed erythrocytes) for studies of receptor-mediated transport (RMT).
# In addition, the Kin of these various peptides, across the blood-retinal barrier (BRB), were also determined. Kin of SEQ ID NO: 11=1.2±0.2×10^−4 ml/s/g Kin of SEQ ID NO: 48=2.4±0.3×10^−4 ml/s/g Kin of SEQ ID NO: 73=0.0±0.0×10^−4 ml/s/g Kin of SEQ ID NO: 72=11.5±3.3×10^−4 ml/s/g Kin of SEQ ID NO: 74=1.8±0.2×10^−4 ml/s/g
# [6] = In situ brain perfusion in mouse, transport across the BBB; assay type: in vivo; conditions: mouse, in vivo
# Procedure: The in situ brain perfusion technique (in adult male OF1 mouse) is used here to select the best vectors and to provide proof of their mechanism of action for their passage in the brain across the BBB.
# Radioactive peptides with high specific radioactivity (SRA, up to 100 Ci/mmol) are prepared by a strategy of acylation of the N-term amine function by tritiated propionic (or propanoic) anhydride or tritiated N-propionyl-succinimide (NPS).
# The tritiation reaction of peptide vectors SEQ ID NO: 11 and SEQ ID NO: 48 in the N-term position by propionylation is carried out in DMF (1 mg peptide in 100 μl to 450 μl according to solubility) by adding 0.1 equivalent of tritiated NPS for 5 min at room temperature, then 0.9 equivalent of cold NPS (non-tritiated) for 1 h, and then a new equivalent of cold NPS for 5 h. The reaction medium is then left at 4° C. overnight and purified the following day by HPLC. The SRA for each tritiated peptide is between 5 Ci/mmol and 10 Ci/mmol (theoretically on the order of 7.7 Ci/mmol). The total quantity of radioactivity prepared by synthesis is between 600 μCi and 950 μCi.
# The techniques briefly summarised below were developed to study the distribution in the brain of active substances and, in particular, the role of the BBB and, more particularly, of LDLR in the penetration of these molecules in the brain. In situ brain perfusion techniques are among the most technically demanding and the most difficult to perform in the mouse. However, in situ brain perfusion (like in vitro models) enables total control of the composition of the artificial perfusate in order to maintain the cells and vascularisation of the brain under normal physiological and anatomical conditions within the animal, without the disrupting factor of systemic distribution.
# as §3
# The study of peptide vector SEQ ID NO: 11 made it possible to determine its brain transport or transfer coefficient (Kin). The duration of brain perfusion for these experiments is 5 min with a perfusate flow rate of 2 ml/min. Thus, the calculation of the Kin (volume of distribution over time of brain perfusion) of peptide vector SEQ ID NO: 11 gives a value of 3.5±0.2×10^−4 ml/s/g.
# [7] = tested on: mouse brain vessel endothelial cells; assay: Tail vein injection of bacterial viruses in C57BL6 mice, immunostaining of brain sections; assay type: in vivo; conditions: 15 min and 2 h post injection, peptide expressed by bacterial viruses
# Procedure: Double immunofluorescent staining of frozen sections of C57BL6 mouse brain, 2 h after mouse tail vein injection of control bacterial viruses (A-B) and bacterial viruses expressing a peptide (SEQ ID NO: 1) with affinity for hLDLR and mLDLR (C-D). Brain vessels are stained with anti-mouse IgG, in green (A-C); bacterial viruses are stained with anti-viral envelope protein antibody, in red (B-D).
# Bacterial viruses expressing peptides with affinity for hLDLR (SEQ ID NO: 1 is described here for example) and control bacterial viruses (not expressing peptide with affinity for hLDLR) were injected into the tail veins of C57BL6 mice anaesthetised with halothane. After 15 min and 2 h post injection, the mice were sacrificed and perfused with 0.9% NaCl. Brains, livers and kidneys were frozen in isopentane and frozen sections were prepared for double immunohistochemical staining to visualise blood vessels with anti-mouse IgG and anti-viral envelope protein antibody to visualise bacterial viruses bound to endothelial cells in vivo.
# hLDLR [8] = target: T1, hLDLR; assay: Immunocytochemistry: bacterial viruses on CHO-GFP (control) and CHO-hLDLR-GFP cell lines; assay type: binding; set-up: expressed in transfected cells; conditions: CHO cell line expressing GFP alone; peptide expressed by bacterial virus clone
# Excerpt: CHO cell lines stably expressing A—GFP alone (green), and B—hLDLR-GFP (green), and immunostaining with an anti-viral envelope protein antibody of a clone of bacterial viruses expressing a peptide (SEQ ID NO: 1) with affinity for hLDLR (red dots). Cell nuclei are stained with Hoechst (blue, A1 and B1). GFP fluorescence is visible in green (A2 and B2), that of the staining of the viral envelope of the bacterial virus by the viral anti-protein antibody is visible in red (A3 and B3) and the superimposing of red and green stains is visible in yellow/orange (A4 and B4).
# The bacterial virus clones identified following the binding of the peptides, which they express and which bind to hLDLR-GFP expressed by the stable CHO-hLDLR-GFP cell line, were brought together with LDLR cells and, after intensive washing, were detected with an antibody directed against the viral envelope protein of the bacterial virus followed by a second antibody coupled with Alexa 594 (FIG. 7).
# [9] = Demeule et al., 2008; cited from earlier work
# hLDLR [10] = target: T1, hLDLR; assay: FACS: binding of bacterial viruses expressing peptides to human fibroblasts; set-up: endogenous in cells; host or cells: HUVEC (human umbilical vein endothelial cells), not genetically modified; conditions: peptide expressed by bacterial virus clone, vs control bacterial viruses
# Procedure: Evaluation by FACS of the interaction between human fibroblasts and a clone of bacterial viruses expressing peptide SEQ ID NO: 12 with affinity for hLDLR, compared with control bacterial viruses not expressing peptides with affinity for this receptor.
# as §1, §2
substance,measurement,setting,value
RAP protein: RAP protein; literature Kin value,Kin,[1],1e-05 mL/s/g
DSGLCMPRLRGCDPR [SEQ ID NO: 11],shift of the signal in Q2 (FACS),"hLDLR [2]; peptide expressed by bacterial virus clone, vs control bacterial viruses",significant shift
same,percentage of shift of the fluorescence signal in zone Q2,"hLDLR [2]; peptide expressed by bacterial viruses, without LDL",greater than 70%
same,shift of the signal in Q2 (FACS),hLDLR [3],significant shift
same,effect of LDL on binding of peptides expressed by bacterial viruses,"hLDLR [4]; FACS, LDL added",No effect
same,loss/shift of signal in Q2 on adding LDL,"hLDLR [4]; peptide expressed by bacterial viruses, in the presence of LDL",17%
same,Kin across the blood-retinal barrier (BRB),[5],1.2±0.2 ×10^−4 ml/s/g
same,Kin (brain transport or transfer coefficient),[6],3.5±0.2 ×10^−4 ml/s/g
HLDCMPRGCFRN [SEQ ID NO: 1],binding to brain vessel wall endothelial cells in vivo,[7],bind to vessel wall endothelial cells
same,binding of bacterial viruses to cells that do not express hLDLR,hLDLR [8],do not bind
"transferrin: transferrin, ligand of TfR; literature Kin value",Kin,[9],0.0003 mL/s/g
MTVMPTGLWNPLIPS [SEQ ID NO: 12],shift of the signal in Q2 (FACS),hLDLR [10],significant shift
